Test results published in PubChem BioAssay (NCI).
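Cells were grown in 96-well plates and exposed to each compound for 48 hours at five concentrations; endpoints were interpolated linearly between bracketing concentrations, or set to the highest concentration if not reached. Definition used: TGI = concentration required for complete inhibition of growth.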

How the values were obtained:
Assay in all cases: NCI tumour cell line growth inhibition, 48 h
[1] = test system: 786-0 renal
[2] = test system: A549 NSCLC
[3] = test system: ACHN renal
[4] = test system: BT-549 breast
[5] = test system: CAKI-1 renal
[6] = test system: CCRF-CEM leukemia
[7] = test system: COLO 205 colon
[8] = test system: DU-145 prostate
[9] = test system: EKVX NSCLC
[10] = test system: HCC-2998 colon
[11] = test system: HCT-116 colon
[12] = test system: HCT-15 colon
[13] = test system: HL-60(TB) leukemia
[14] = test system: HOP-62 NSCLC
[15] = test system: HOP-92 NSCLC
[16] = test system: HS 578T breast
[17] = test system: HT29 colon
[18] = test system: IGROV1 ovarian
[19] = test system: KM12 colon
[20] = test system: LOX IMVI melanoma
[21] = test system: M14 melanoma
[22] = test system: MALME-3M melanoma
[23] = test system: MCF7 breast
[24] = test system: MDA-MB-231 breast
[25] = test system: MDA-MB-435
[26] = test system: MOLT-4 leukemia
[27] = test system: NCI-H226 lung
[28] = test system: NCI-H23 lung
[29] = test system: NCI-H522 lung
[30] = test system: NCI/ADR-RES ovarian
[31] = test system: OVCAR-3 ovarian
[32] = test system: OVCAR-4 ovarian
[33] = test system: OVCAR-5 ovarian
[34] = test system: OVCAR-8 ovarian
[35] = test system: PC-3 prostate
[36] = test system: RPMI-8226 leukemia
[37] = test system: RXF 393 renal
[38] = test system: SF-268 CNS
[39] = test system: SF-295 CNS
[40] = test system: SF-539 CNS
[41] = test system: SK-MEL-2 melanoma
[42] = test system: SK-MEL-28 melanoma
[43] = test system: SK-MEL-5 melanoma
[44] = test system: SK-OV-3 ovarian
[45] = test system: SN12C renal
[46] = test system: SNB-19 CNS
[47] = test system: SR leukemia
[48] = test system: SW-620 colon
[49] = test system: T-47D breast
[50] = test system: TK-10 renal
[51] = test system: U251 CNS
[52] = test system: UACC-257 melanoma
[53] = test system: UACC-62 melanoma
[54] = test system: UO-31 renal

Measured: TGI

CCOC(=O)[C@@]1(C)CC(O)C(=O)N1C (some centres undefined)
> 100 µM: [1] | [2] | [3] | [4] | [5] | [6] | [7] | [8] | [9] | [10] | [11] | [12] | [13] | [14] | [15] | [16] | [17] | [18] | [19] | [20] | [21] | [22] | [23] | [24] | [25] | [26] | [27] | [28] | [29] | [30] | [31] | [32] | [33] | [34] | [35] | [36] | [37] | [38] | [39] | [40] | [41] | [42] | [43] | [44] | [45] | [46] | [47] | [48] | [49] | [50] | [51] | [52] | [53] | [54]
